Source: patent US20100160335A1, “PYRIDAZINONE DERIVATIVE AND PDE INHIBITOR CONTAINING THE SAME AS ACTIVE INGREDIENT” (KYORIN PHARMACEUTICAL CO., LTD., priority 2007, published 2010)

Assays:
PDE4Bcat = molecular target: T1, PDE4Bcat (Homo sapiens, UniProt Q07343); assay: Phosphodiesterase inhibitory activity, PDE4 ([3H]cAMP, recombinant enzyme); type: biochemical; settings: 30° C., 20 minutes, read-out: IC50(μmol/L) PDE4
T1 construct: made in house; host or cells: Sf9 insect cells (baculovirus, Bac-to-Bac / Gateway)

[1] = molecular target: T2, PDE3A catalytic domain (PDE3Acat) (Homo sapiens, UniProt Q14432); assay: Phosphodiesterase inhibitory activity, PDE3 ([3H]cAMP, recombinant enzyme); type: biochemical; settings: 30° C., 20 minutes, read-out: IC50(μmol/L) PDE3
T2 construct: made in house; host or cells: Sf9 insect cells (baculovirus, Bac-to-Bac / Gateway)

[2] = tested on: histamine-induced bronchoconstriction in guinea pigs; assay: Histamine-induced bronchoconstriction reaction in guinea pigs; type: in vivo; settings: guinea pig, measured 30 seconds after administration
Experimental: Guinea pigs were anesthetized with pentobarbital (30 mg/kg, i.p.). A cannula for intravenous administration was inserted into the left external jugular vein, a cannula for collecting blood and measuring blood pressure was inserted into the right internal carotid artery, and a tracheal cannula was inserted into the trachea. The guinea pigs were maintained on artificial respiration under the conditions of 60 times/min and 10 mL/kg/stroke. The airflow from the side branch of the tracheal cannula was measured by a bronchospasm transducer (Ugo-Basile) and recorded on a computer via Power Lab (ADInstruments Japan). The guinea pigs were immobilized with gallamine (10 mg/kg, i.v.), and histamine (12.5 μg/kg, i.v.) was administered at 10-minute intervals. After the histamine-induced bronchoconstriction became stable, the compound (0.3 mg/kg, i.v.) was administered. The histamine-induced bronchoconstriction reaction was measured 30 seconds after the compound administration to examine the bronchoconstriction inhibitory activity of the compound. The bronchoconstriction was recorded as the airflow value, and the results were represented by the ratio of the maximum value of the histamine- induced airflow 30 seconds after the administration to the maximum value of the airflow before the administration. Also, the test compounds dissolved in DMSO were used. Further, the indications were as follows: inhibition rate≧90% (+++), 90%>inhibition rate≧80% (++), and 80%>inhibition rate≧70% (+). [ ] means the results in the case of 0.1 mg/kg, i.v.

[3] = Cavia porcellus, iv, 0.5 min, compound 0.3 mg/kg, i.v., read-out: Inhibition rate (histamine-induced bronchoconstriction)

T1 sequence (Q07343 330-659 limits assumed): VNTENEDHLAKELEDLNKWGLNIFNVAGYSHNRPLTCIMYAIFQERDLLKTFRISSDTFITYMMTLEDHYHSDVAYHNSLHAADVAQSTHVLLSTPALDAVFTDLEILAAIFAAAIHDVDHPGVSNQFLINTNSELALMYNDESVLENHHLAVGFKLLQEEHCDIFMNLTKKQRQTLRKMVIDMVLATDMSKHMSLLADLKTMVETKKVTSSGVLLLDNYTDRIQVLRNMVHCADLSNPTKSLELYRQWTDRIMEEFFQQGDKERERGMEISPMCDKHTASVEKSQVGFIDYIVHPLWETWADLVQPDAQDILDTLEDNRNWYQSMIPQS
T2 sequence (Q14432 674-1093 limits assumed): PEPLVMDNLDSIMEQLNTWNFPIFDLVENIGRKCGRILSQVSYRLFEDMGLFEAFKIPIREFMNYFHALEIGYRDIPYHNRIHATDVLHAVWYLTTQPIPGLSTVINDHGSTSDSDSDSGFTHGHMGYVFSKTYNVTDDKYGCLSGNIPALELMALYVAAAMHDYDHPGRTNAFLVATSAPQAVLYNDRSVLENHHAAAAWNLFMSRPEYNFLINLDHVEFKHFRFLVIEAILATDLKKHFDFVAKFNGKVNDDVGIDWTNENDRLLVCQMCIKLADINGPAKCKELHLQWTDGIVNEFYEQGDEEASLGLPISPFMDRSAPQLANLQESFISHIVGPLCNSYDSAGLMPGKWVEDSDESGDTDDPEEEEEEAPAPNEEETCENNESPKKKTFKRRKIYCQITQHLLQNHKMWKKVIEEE

IC50 (PDE4Bcat) [µmol/L]	IC50 [1] [µmol/L]	Compound	Inhibition rate (histamine-induced bronchoconstriction) ([2]; compound 0.3 mg/kg, i.v.)	inhibition in vivo at 0.3 mg/kg [2, 3] [%]	inhibition in vivo at 0.1 mg/kg ([2]; Cavia porcellus, iv, 0.5 min, compound 0.1 mg/kg, i.v. (values in [ ]), read-out: Inhibition rate (histamine-induced bronchoconstriction)) [%]
0.1 to 1	< 0.1	CCc1ccc2c(C3=NN(CCCCOc4ccc(C5=NNC(=O)CC5C)cc4)C(=O)CC3C)ccc(OC)c2n1 (single isomer, unassigned) [Example 342, 6-(2-Ethyl-8-methoxyquinolin-5-yl)-5-methyl-2-[4-[4-(4-methyl-6-oxo-1,4,5,6-tetrahydropyridazin-3-yl)phenoxy]butyl]-4,5-dihydro-2H-pyridazin-3-one]	+++ (inhibition rate≧90% (+++))	–	–
< 0.1	0.1 to 1	COc1ccc(C2=NN(CCCCOc3ccc(C4=NNC(=O)CC4C)cc3)C(=O)CC2C)c2ccc(C)nc12 (centres unmarked) [Example 267, 6-(8-Methoxy-2-methylquinolin-5-yl)-5-methyl-2-[4-[4-(4-methyl-6-oxo-1,4,5,6-tetrahydropyridazin-3-yl)phenoxy]butyl]-4,5-dihydro-2H-pyridazin-3-one]	–	≥ 90	–
0.1 to 1	< 0.1	COc1ccc(C2=NN(CCCCOc3ccc(C4=NNC(=O)CC4C)cc3)C(=O)CC2C)c2ccc(C(C)C)nc12 (centres unmarked) [Example 269, 6-(8-Methoxy-2-isopropylquinolin-5-yl)-5-methyl-2-[4-[4-(4-methyl-6-oxo-1,4,5,6-tetrahydropyridazin-3-yl)phenoxy]butyl]-4,5-dihydro-2H-pyridazin-3-one]	–	–	80 to 90
< 0.1	0.1 to 1	COc1ccc(-c2ccc(=O)n(CCCCOc3ccc(C4=NNC(=O)CC4)cc3F)n2)c2ccc(C)nc12 [Example 272, 2-[4-[2-Fluoro-4-(6-oxo-1,4,5,6-tetrahydropyridazin-3-yl)phenoxy]butyl}-6-(8-methoxy-2-methylquinolin-5-yl)-2H-pyridazin-3-one]	–	70 to 80	–
< 0.1	< 0.1	COc1ccc(-c2ccc(=O)n(CCCCOc3ccc(C4=NNC(=O)CC4C)c(F)c3F)n2)c2ccc(C)nc12 (centres unmarked) [Example 273, 2-[4-[2,3-Difluoro-4-(4-methyl-6-oxo-1,4,5,6-tetrahydropyridazin-3-yl)phenoxy]butyl]-6-(8-methoxy-2-methylquinolin-5-yl)-2H-pyridazin-3-one]	–	≥ 90	–
1 to 10	< 0.1	COc1ccc(-c2ccc(=O)n(CCCCOc3ccc(C4=NNC(=O)C4(C)C)c(F)c3F)n2)c2nc(C(F)(F)F)[nH]c12 [Example 277, 2-[4-[2,3-Difluoro-4-(4,4-dimethyl-5-oxo-4,5-dihydro-1H-pyrazol-3-yl)phenoxy]butyl]-6-(4-methoxy-2-trifluoromethyl-1H-benzimidazol-7-yl)-2H-pyridazin-3-one]	–	80 to 90	–
1 to 10	< 0.1	COc1ccc(-c2ccc(=O)n(CCCCOc3ccc(C4=NNC(=O)CC4)c(F)c3F)n2)c2nc(C(F)(F)F)[nH]c12 [Example 278, 2-[4-[2,3-Difluoro-4-(6-oxo-1,4,5,6-tetrahydropyridazin-3-yl)phenoxy]butyl]-6-(4-methoxy-2-trifluoromethyl-1H-benzimidazol-7-yl)-2H-pyridazin-3-one]	–	≥ 90	–
0.1 to 1	1 to 10	CCc1ccc2c(-c3ccc(=O)n(CCCOc4ccc(C5=NNC(=O)C5(C)C)c(F)c4F)n3)ccc(OC)c2n1 [Example 327, 6-(2-Ethyl-8-methoxyquinolin-5-yl)-2-[3-[2,3-difluoro-4-(4,4-dimethyl-5-oxo-4,5-dihydro-1H-pyrazol-3-yl)phenoxy]propyl]-2H-pyridazin-3-one]	–	–	–
1 to 10	< 0.1	COc1ccc(-c2ccc(=O)n(CCCCOc3ccc(C4=NNC(=O)CC4C)c(F)c3F)n2)c2cc(C(F)(F)F)sc12 (centres unmarked) [Example 330, 2-[4-[2,3-Difluoro-4-(4-methyl-6-oxo-1,4,5,6-tetrahydropyridazin-3-yl)phenoxy]butyl]-6-(7-methoxy-2-trifluoromethylbenzo[b]thiophen-4-yl)-2H-pyridazin-3-one]	–	–	–
1 to 10	< 0.1	COc1ccc(-c2ccc(=O)n(CCCCOc3ccc(C4=NNC(=O)CC4)c(F)c3F)n2)c2cc(C(F)(F)F)sc12 [Example 331, 2-[4-[2,3-Difluoro-4-(6-oxo-1,4,5,6-tetrahydropyridazin-3-yl)phenoxy]butyl]-6-(7-methoxy-2-trifluoromethylbenzo[b]thiophen-4-yl)-2H-pyridazin-3-one]	–	–	–
1 to 10	0.1 to 1	COc1ccc(-c2ccc(=O)n(CCCCOc3ccc(C4=NNC(=O)C4(C)C)c(F)c3F)n2)c2cc(C(F)(F)F)sc12 [Example 332, 2-[4-[2,3-Difluoro-4-(4,4-dimethyl-5-oxo-4,5-dihydro-1H-pyrazol-3-yl)phenoxy]butyl]-6-(7-methoxy-2-trifluoromethylbenzo[b]thiophen-4-yl)-2H-pyridazin-3-one]	–	–	–
0.1 to 1	< 0.1	CCc1nc2c(OC)ccc(-c3ccc(=O)n(CCCCOc4ccc(C5=NNC(=O)CC5)c(F)c4F)n3)c2o1 [Example 333, 6-(2-Ethyl-4-methoxybenzooxazol-7-yl)-2-[4-[2,3-difluoro-4-(6-oxo-1,4,5,6-tetrahydropyridazin-3-yl)phenoxy]butyl]-2H-pyridazin-3-one]	–	–	–
0.1 to 1	< 0.1	CCc1nc2c(OC)ccc(-c3ccc(=O)n(CCCCOc4ccc(C5=NNC(=O)CC5C)c(F)c4F)n3)c2o1 (centres unmarked) [Example 334, 6-(2-Ethyl-4-methoxybenzooxazol-7-yl)-2-[4-[2,3-difluoro-4-(4-methyl-6-oxo-1,4,5,6-tetrahydropyridazin-3-yl)phenoxy]butyl]-2H-pyridazin-3-one]	–	–	–
0.1 to 1	0.1 to 1	CCc1nc2c(OC)ccc(-c3ccc(=O)n(CCCCOc4ccc(C5=NNC(=O)C5(C)C)c(F)c4F)n3)c2o1 [Example 335, 6-(2-Ethyl-4-methoxybenzooxazol-7-yl)-2-[4-[2,3-difluoro-4-(4,4-dimethyl-5-oxo-4,5-dihydro-1H-pyrazol-3-yl)phenoxy]butyl]-2H-pyridazin-3-one]	–	–	–
0.1 to 1	< 0.1	COc1ccc(-c2ccc(=O)n(CCCCOc3ccc(C4=NNC(=O)CC4C)c(F)c3F)n2)n2cc(C(F)(F)F)nc12 (centres unmarked) [Example 336, 2-[4-[2,3-Difluoro-4-(4-methyl-6-oxo-1,4,5,6-tetrahydropyridazin-3-yl)phenoxy]butyl]-6-(8-methoxy-2-trifluoromethylimidazo[1,2-a]pyridin-5-yl)-2H-pyridazin-3-one]	–	–	–
0.1 to 1	0.1 to 1	COc1ccc(-c2ccc(=O)n(CCCCOc3ccc(C4=NNC(=O)CC4)c(F)c3F)n2)n2cc(C(F)(F)F)nc12 [Example 337, 2-[4-[2,3-Difluoro-4-(6-oxo-1,4,5,6-tetrahydropyridazin-3-yl)phenoxy]butyl]-6-(8-methoxy-2-trifluoromethylimidazo[1,2-a]pyridin-5-yl)-2H-pyridazin-3-one]	–	–	–
0.1 to 1	0.1 to 1	COc1ccc(-c2ccc(=O)n(CCCCOc3ccc(C4=NNC(=O)C4(C)C)c(F)c3F)n2)n2cc(C(F)(F)F)nc12 [Example 338, 2-[4-[2,3-Difluoro-4-(4,4-dimethyl-5-oxo-4,5-dihydro-1H-pyrazol-3-yl)phenoxy]butyl]-6-(8-methoxy-2-trifluoromethylimidazo[1,2-a]pyridin-5-yl)-2H-pyridazin-3-one]	–	–	–
